We go through one compound from PMC8100298, “Histone deacetylase inhibitor resminostat in combination with sorafenib counteracts platelet-mediated pro-tumoral effects in hepatocellular carcinoma” (Scientific Reports, 2021).

In general, EC50 refers to the concentration giving half of the maximal effect.

Experiment [1] concerns Class I HDAC1, 2, 3, and 8; class II b HDAC6 and 10; and class IV HDAC11. As to the kind of experiment: In vitro HDAC activity assay. The experiment is classed as biochemical, human. To be noted: in words, from IC50 calculation (Fig. S1A).
Experimental: In vitro HDAC inhibition assay
The half maximal HDAC-inhibitory concentrations (IC50) of resminostat w ere determined by
in vitro HDAC activity assays (Reaction Biology Corporation RBC, Pennsylvania, USA). For
the assay, resminostat was dissolved in DMSO and a dilution series with 10 concentrations
was used. The inhibitory activity of resminostat was tested on purified recombinant human
HDAC1-11. HDAC1-11 were produced using a baculovirus express ion system (human
HDAC1: cat# 50051, BPS, California, US; human HDAC2: cat# KDA-21-277, RBC,
Pennsylvania, USA; human HDAC3: cat# KDA -22-278, RBC, Pennsylvania, USA; human
HDAC4: cat# 50004 BPS, California, US; human HDAC5: cat# KDA-21-280, RBC, […]
activities of HDAC1 to 11 were assessed using acetylated AMC (7-amino-4-methycoumarin)-
labelled fluorogenic peptide substrates: fluorogenic peptide from p53 residues 379-382 (RHKK(Ac)AMC) for HDAC1, 2, 3, 6, 10, 11; fluorogenic HDAC Class IIa Substrate (Trifluoro acetyl Lysine, Ac-LGK(TFA)-AMC) for HDAC 4, 5, 7, 9; and fluorogenic peptide from p53 residues 379-382 (RHK(Ac)K(Ac)AMC) for HDAC8. […] In a second step, the deacetylated products were digested by the addition of developer for 1 h at 30°C to produce the fluorescent signal proportional to the amount of deacetylated substrates and the fluorescence was measured using an Envision plate reader at 355 nm (excitation) and 460 nm (emission). […]
Experiment [2] has as its system PLC/PRF/5 and SNU-475 cells. The experiment is described as follows: ELISA for growth factors PDGF-AA, TGF and VEGF. The note with it: tissue culture supernatants, with or without platelets (Fig. S4B). It counts as cell-based. As for the experimental part: A. The growth factors PDGF-AA, TGFβ and VEGF were determined from tissue culture supernatants by ELISA. PLC/PRF/5 and SNU-475 cells were cultured with increasing […]
(1 picture or pasted object on this page, not shown here) […]
amounts of platelets. In parallel, platelets were cultured without cells to determine if the growth factors were platelet derived.
B. ELSIAs for PDGF-AA, TGFβ and VEGF were performed after drug treatment of PC/PRF/5 and SNU-475 cells. Cells were cultured as indicated with or without platelets and treated with resminostat, sorafenib, the drug combination or vehicle control 0.1% DMSO.
Table S1_ EC50 cell line screen
S1D. The cancer cell lines, their tissue origins and the respective EC50 values are shown.
Each cell line was seeded in duplicates.

In experiment [3] the test system is CASKI. As to the kind of experiment: Efficacy screening assay. To be noted: 72 h, cervix. It counts as cell-based. The procedure: (§1) The experiment was performed by Oncolead GmbH & Co. KG (Karlsfeld , Germany), based on a standardized screening procedure . Cell lines were purchased directly from the ATCC, NCI and DSMZ cell line c ollections. Cells used for the study had undergone less than 20 passages. To ensure the absence of potential contamination and wrong assignment, all cell lines were tested using a whole genome assay (Agilent, USA). All cell lines were grown as recommended by the suppliers and with addition of 100 U/mL penicillin G and 100 µg/mL; streptomycin. Cell growth and treatments were performed in Nunclon D 96 -well plates (NUNC, Germany). The optimal seeding density for each cell line was determined to ensure exponential growth for the duration of the experiment. All cells growing without anti-cancer agents were sub-conﬂuent by the end of the treatment, as determined by visual inspection.
(§2) After an initial 24 h pre-growth period, the compounds were added. The vehicle concentration […]
(§3) was 0.1% DMSO. After incubation at 37°C for 72 h, the culture medium was aspirated, and the cells were precipitated by the addition of 10% trichloroacetic acid (Sigma-Aldrich, Missouri, US). After overnight incubation at 4°C, the plates were washed three times with deionized water. The precipitates were then stained with SRB (0.4% wt/v sulforhodamine B solution in 1% acetic acid, Sigma-Aldrich, Missouri, US). Afterwards, the plates were washed six times with 1% acetic acid to remove unbound stain. After drying the plates at room temperature, the bound SRB was solubilized with 10 mM Tris base and the optical density was measured at 520 nm using a Victor2 plate reader (Perkin Elmer, Germany). Blank OD values were subtracted from mean OD values for each concentration. The nonlinear curve ﬁtting and EC50 calculations were per formed using XLﬁt and algorithm “205” (ID Business […]
(§4) For comparison of EC50 values in Figure 1F, one-way ANOVA with multiple comparison testing (Tukey) was performed. Multiplicity adjusted p -values for the EC50 with sorafenib versus resminostat for each cell line and comparison between cell lines for sorafenib are presented (95% confidence interval for significance testing). For comparison of EC50 data in Figure 2B, one-way ANOVA with multiple comparison testing (Tukey) was performed. Multiplicity adjusted p-values with 95% confidence interval was applied. For the invasion assays in Figure 4, one-way ANOVA with multiple comparison testing (Tukey) was performed. Multiplicity adjusted p-values with 95% confidence interval was applied. The adjusted p-values comparing vehicle control without vs. with platelets and compound

The subject of experiment [4] is NCIH292. As to the kind of experiment: Efficacy screening assay. The experiment is classed as cell-based. To be noted: NCIH292, lung. The procedure: as §1, §2, §3, §4
Experiment [5] relates to NCIH358M. As to the kind of experiment: Efficacy screening assay. It counts as cell-based. The note with it: 72 h, lung. As for the experimental part:
as §1, §2, §3, §4

Experiment [6] deals with OVCAR4. The experiment is described as follows: Efficacy screening assay. The note with it: OVCAR4, ovary. It counts as cell-based. As for the experimental part: as §1, §2, §3, §4
Experiment [7] deals with PLCPRF5. As to the kind of experiment: Efficacy screening assay. The note with it: Homo sapiens, PLC-PRF-5, PLCPRF5, liver, 72 h. The experiment is classed as cell-based. As for the experimental part:
as §1, §2, §3, §4

Experiment [8] concerns RD. The experiment is described as follows: Efficacy screening assay. It counts as cell-based. To be noted: 72 h, muscle. As for the experimental part:
as §1, §2, §3, §4

Experiment [9] concerns SKBR3. The experiment is described as follows: Efficacy screening assay. The experiment is classed as cell-based. To be noted: SKBR3, breast. As for the experimental part: as §1, §2, §3, §4

Like-named read-outs stand apart in the source and are kept apart here.

As for `CN(C)Cc1ccc(S(=O)(=O)n2ccc(/C=C/C(=O)NO)c2)cc1` [resminostat, Resminostat], the “inhibition of HDAC activity” value in experiment [1] is “inhibits the activity”. Moreover, the “growth factors released by platelets or secreted by HCC cells” value in [2] is recorded as “not consistantly affected”. For the same compound, the half-maximal effective concentration (EC50) in experiment [3] (Homo sapiens, Ca-Ski, log of EC50, negative, read-out: log(EC50) (converted)) was 2.63 µM; in experiment [3] (Homo sapiens, Ca-Ski, read-out: EC50), 2.63 µM; in experiment [3] (read-out: EC50), 2.63 µM; in experiment [4] (Homo sapiens, NCI-H292, 72 h, log of EC50, negative, read-out: log(EC50) (converted)), 6.31 µM; in experiment [4] (Homo sapiens, NCI-H292, 72 h, read-out: EC50) it was 6.27 µM; in experiment [4] (72 h, read-out: EC50), 6.27 µM. Moreover, the EC50 in experiment [5] (NCI-H358M, log of EC50, negative, read-out: log(EC50) (converted)) was 4.37 µM; in [5] (NCI-H358M, read-out: EC50), 4.33 µM; in [5] (read-out: EC50) it was 4.33 µM; in [6] (Homo sapiens, OVCAR-4, 72 h, log of EC50, negative, read-out: log(EC50) (converted)), 4.07 µM; in [6] (Homo sapiens, OVCAR-4, 72 h, read-out: EC50), 4.04 µM; in experiment [6] (72 h, read-out: EC50) it was 4.04 µM. Further, the EC50 was 3.39 µM in experiment [7] (log of EC50, negative, read-out: log(EC50) (converted)); 3.42 µM in experiment [7] (read-out: EC50); 1.55 µM in experiment [8] (Homo sapiens, log of EC50, negative, read-out: log(EC50) (converted)); 1.53 µM in [8] (Homo sapiens, read-out: EC50); 1.53 µM in [8] (read-out: EC50); 0.933 µM in experiment [9] (Homo sapiens, SK-BR-3, 72 h, log of EC50, negative, read-out: log(EC50) (converted)). The EC50 is 0.93 µM in experiment [9] (Homo sapiens, SK-BR-3, 72 h, read-out: EC50) and 0.93 µM in experiment [9] (72 h, read-out: EC50).
